Test results from publication PMC4563140 (EBioMedicine, 2015).
In brackets after ≈: the same amount, converted by molar mass. Several values for one entry are separate records, joined by “and”; a condition that tells them apart may be missing. Equal entries are not always repeated. Where two headings read alike, the source gives them in different places.

What was measured:
[1] = system: M.tb isolates from BALB/c mice after four months of treatment; test: microbe, parasite or virus in culture; type: cell-based; conditions: Mycobacterium tuberculosis, read-out: minimum inhibitory concentration
[2] = for rifampin area under curve (0–18 h): rifampin 10 mg/kg
[3] = system: bone marrow-derived macrophages (BMDM) from BALB/c and C3HeB/FeJ mice; type: cell-based
[4] = system: JAK tyrosine kinase activity; conditions: ref Dowty et al., 2014; cited from earlier work
[5] = human, recommended doses; ref Dowty et al., 2014; cited from earlier work
M.tb H37Rv = test: Relapse 3 months after ending treatment, BALB/c mice; type: in vivo
wild type H37Rv = test: microbe, parasite or virus in culture; type: cell-based; conditions: Mycobacterium tuberculosis, read-out: minimal inhibitory concentration
[6] = Observation of adverse effects in mice during the study period; type: in vivo; conditions: tofacitinib 30 mg/kg/day (the higher dose)

| SMILES | MIC [1] | rifampin area under curve (0–18 h) ([2]; mouse serum, co-administered tofacitinib 15 mg/kg) | rifampin area under curve (0–18 h) ([2]; mouse serum, co-administered tofacitinib 22.5 mg/kg) | rifampin area under curve (0–18 h) ([2]; mouse serum, co-administered tofacitinib 30 mg/kg) | effect on cytokine levels (TNF-α, IL-1β) of BMDMs [3] | concentration of tofacitinib required to inhibit JAK tyrosine kinase activity [4] | elimination half-life [5] | relapse rate, Std-Rx plus tofacitinib versus Std-Rx alone (M.tb H37Rv) | MIC (wild type H37Rv) | adverse effects in mice [6] | peak tofacitinib serum concentration in mice during PK experiments ([2]; as stated in section 3.3) | effect of tofacitinib co-administration on the serum concentration of rifampin ([2]; mice, tofacitinib 15, 22.5, 30 mg/kg/day with rifampin 10 mg/kg) | concentration of tofacitinib 2 h after the dose ([2]; mouse serum, with or without co-administration of rifampin, all doses tested) | average exposure in mice relative to patients with rheumatoid arthritis on 10 mg per day ([2]; tofacitinib 30 mg/kg/day in two divided doses) |
| --- | --- | --- | --- | --- | --- | --- | --- | --- | --- | --- | --- | --- | --- | --- |
| CO[C@H]1/C=C/O[C@@]2(C)Oc3c(C)c(O)c4c(O)c(c(/C=N/N5CCN(C)CC5)c(O)c4c3C2=O)NC(=O)/C(C)=C\C=C\[C@H](C)[C@H](O)[C@@H](C)[C@@H](O)[C@@H](C)[C@H](OC(C)=O)[C@@H]1C [rifampin] | 0.25 µg/mL (≈ 0.304 µM) | 77 μg/ml·H | 93 μg/ml·H | 103 μg/ml·H |  |  |  |  |  |  |  |  |  |  |
| C[C@@H]1CCN(C(=O)CC#N)C[C@@H]1N(C)c1ncnc2[nH]ccc12 [tofacitinib] |  |  |  |  | did not alter the cytokine levels | 100 nM and 31.2 ng/mL | ~ 3 h | did not differ | > 64 µg/mL | did not observe any adverse effects | 3 µg/mL | no effect | 250 to 500 ng/mL | at least three to five |
| NNC(=O)c1ccncc1 [isoniazid] | 0.04 µg/mL (≈ 0.292 µM) |  |  |  |  |  |  |  |  |  |  |  |  |  |
